Calls of active or inactive are those of the source. The calls are words filed in the database; no cut-off is given here.
Key:
[1] = Selectivity ratio of IC50 for antiproliferative activity against MTAP wild type human HCT-116 cells to IC50 for antiproliferative activity against MTAP deleted human HCT-116 cells; format: functional
HCT-116 [2] = assay: Antiproliferative activity against MTAP deleted human HCT-116 cells assessed as inhibition of cell viability by luminescence based cell titer-glo assay; format: functional
HCT-116 [3] = assay: Antiproliferative activity against MTAP wild type human HCT-116 cells assessed as inhibition of cell viability by luminescence based cell titer-glo assay; format: functional
HCC95 = assay: Antiproliferative activity against MTAP wild type human HCC95 cells assessed as inhibition of cell viability measured after 10 days by luminescence based cell titer-glo assay; format: functional; settings: HCC95, 240 h
Lu-99 cell line [4] = assay: Antitumor activity against human Lu-99 cell line xenografted in female BALB/c nude mouse model assessed as tumor growth inhibition at 200 mg/kg administered once daily via oral gavage and measured upto 21 days by caliper method relative to control; format: functional; design: scale not given: the % may be the effect or the level left; settings: time <= 21 day
[5] = AUC (0 to 24 hrs) in male Sprague-Dawley rat at 5 mg/kg, po or 1 mg/kg, iv measured upto 24 hrs; format: ADME, organism-based; settings: in vivo
[6] = Antiproliferative activity against MTAP wild type human KURAMOCHI cells assessed as inhibition of cell viability measured after 10 days by luminescence based cell titer-glo assay; format: functional; settings: 240 h
Lu-99 cell line [7] = assay: Antiproliferative activity against MTAP null human Lu-99 cell line assessed as inhibition of cell viability measured after 10 days by luminescence based cell titer-glo assay; format: functional; settings: Lu-99, 240 h
[8] = Antiproliferative activity against MTAP null human NCI-H647 cells assessed as inhibition of cell viability measured after 10 days by luminescence based cell titer-glo assay; format: functional; settings: NCI-H647, 240 h
Lu-99 cell line [9] = assay: Antitumor activity against human Lu-99 cell line xenografted in female BALB/c nude mouse model assessed as tumor growth inhibition administered once daily via oral gavage and measured upto 21 days by caliper method; format: functional; settings: dose 25-200 mg/kg, time <= 21.0 day
Lu-99 cell line [10] = assay: Antitumor activity against human Lu-99 cell line xenografted in female BALB/c nude mouse model assessed as tumor growth inhibition at 25 mg/kg administered once daily via oral gavage and measured upto 21 days by caliper method relative to control; format: functional; design: scale not given: the % may be the effect or the level left; settings: time <= 21 day
[11] = target: T1, Protein arginine N-methyltransferase 5 (Homo sapiens, UniProt O14744); assay: In vivo inhibition of PRMT5 in female BALB/c nude mouse xenografted with human Lu-99 cell line assessed as inhibition of SDMA level at 100 mg/kg administered once daily via oral gavage by Western blot analysis relative to control; format: functional, organism-based; design: scale not given: the % may be the effect or the level left
[12] = Toxicity in female BALB/c nude mouse assessed as effect on body weight loss at 25 to 200 mg/kg, po administered once daily for 21 days; format: organism-based; settings: in vivo, 504 h, dose 25-200 mg/kg, time 21 day
[13] = Oral bioavailability in male Beagle dog at 3 mg/kg or 1 mg/kg, iv measured upto 24 hrs; format: ADME, organism-based, Canis lupus familiaris; settings: in vivo
DOHH-2 = assay: Antiproliferative activity against MTAP null human DOHH-2 cells assessed as inhibition of cell viability measured after 10 days by luminescence based cell titer-glo assay; format: functional; settings: DOHH-2, 240 h
MDA-MB-436 = assay: Antiproliferative activity against MTAP wild type human MDA-MB-436 cells assessed as inhibition of cell viability measured after 10 days by luminescence based cell titer-glo assay; format: functional; settings: MDA-MB-436, 240 h
[14] = Cmax in male CD-1 mouse at 5 mg/kg, po or 1 mg/kg, iv measured upto 24 hrs; format: ADME, organism-based; settings: in vivo
[15] = target: T1, Protein arginine N-methyltransferase 5; assay: Inhibition of PRMT5 in MTAP deleted human Lu-99 cell line assessed as reduction in SDMA level at upto 1000 nM measured after 5 days by Western blot analysis; format: cell-based; settings: time 5.0 day
[16] = AUC (0 to 24 hrs) in male CD-1 mouse at 5 mg/kg, po or 1 mg/kg, iv measured upto 24 hrs; format: ADME, organism-based; settings: in vivo
[17] = target: T1, Protein arginine N-methyltransferase 5; assay: Inhibition of PRMT5 in MTAP deleted human Lu-99 cell line assessed as increase in gammaH2AX level at upto 1000 nM measured after 5 days by Western blot analysis; format: cell-based; settings: time 5.0 day
[18] = target: T1, Protein arginine N-methyltransferase 5; assay: In vivo inhibition of PRMT5 in female BALB/c nude mouse xenografted with human Lu-99 cell line assessed as inhibition of SDMA level administered once daily via oral gavage by Western blot analysis; format: functional, organism-based; settings: dose 25-200 mg/kg
[19] = Oral bioavailability in male CD-1 mouse at 5 mg/kg or 1 mg/kg, iv measured upto 24 hrs; format: ADME, organism-based; settings: in vivo
[20] = target: T1, Protein arginine N-methyltransferase 5; assay: Inhibition of PRMT5 (unknown origin) in presence of MTA
Lu-99 cell line [21] = assay: Antitumor activity against human Lu-99 cell line xenografted in female BALB/c nude mouse model assessed as tumor growth inhibition at 100 mg/kg administered once daily via oral gavage and measured upto 21 days by caliper method relative to control; format: functional; design: scale not given: the % may be the effect or the level left; settings: time <= 21 day
[22] = target: T1, Protein arginine N-methyltransferase 5; assay: In vivo inhibition of PRMT5 in female BALB/c nude mouse xenografted with human Lu-99 cell line assessed as inhibition of SDMA level at 25 mg/kg administered once daily via oral gavage by Western blot analysis relative to control; format: functional, organism-based; design: scale not given: the % may be the effect or the level left
[23] = Toxicity in female BALB/c nude mouse assessed as drug tolerance at 25 to 200 mg/kg, po administered once daily for 21 days; format: organism-based; settings: in vivo, 504 h, dose 25-200 mg/kg, time 21 day
BT-20 = assay: Antiproliferative activity against MTAP wild type human BT-20 cells assessed as inhibition of cell viability measured after 10 days by luminescence based cell titer-glo assay; format: functional; settings: BT-20, 240 h
[24] = Oral bioavailability in male Sprague-Dawley rat at 5 mg/kg or 1 mg/kg, iv measured upto 24 hrs; format: ADME, organism-based; settings: in vivo
[25] = target: T1, Protein arginine N-methyltransferase 5; assay: Inhibition of PRMT5 in MTAP deleted human Lu-99 cell line assessed as increase in p21 level at upto 1000 nM measured after 5 days by Western blot analysis; format: cell-based; settings: time 5.0 day
[26] = target: T1, Protein arginine N-methyltransferase 5; assay: Inhibition of PRMT5 in MTAP deleted human Lu-99 cell line assessed as decrease pRb (Ser807/811) level at upto 1000 nM measured after 5 days by Western blot analysis; format: cell-based; settings: time 5.0 day
Lu-99 cell line [27] = assay: Antitumor activity against human Lu-99 cell line xenografted in female BALB/c nude mouse model assessed as tumor growth inhibition at 50 mg/kg administered once daily via oral gavage and measured upto 21 days by caliper method relative to control; format: functional; design: scale not given: the % may be the effect or the level left; settings: time <= 21 day
[28] = Cmax in male Sprague-Dawley rat at 5 mg/kg, po or 1 mg/kg, iv measured upto 24 hrs; format: ADME, organism-based; settings: in vivo
[29] = target: T1, Protein arginine N-methyltransferase 5; assay: In vivo inhibition of PRMT5 in female BALB/c nude mouse xenografted with human Lu-99 cell line assessed as inhibition of SDMA level at 50 mg/kg administered once daily via oral gavage by Western blot analysis relative to control; format: functional, organism-based; design: scale not given: the % may be the effect or the level left
[30] = AUC (0 to 24 hrs) in male Beagle dog at 3 mg/kg, po or 1 mg/kg, iv measured upto 24 hrs; format: ADME, organism-based, Canis lupus familiaris; settings: in vivo
[31] = Volume of distribution at steady state in male Beagle dog at 3 mg/kg, po or 1 mg/kg, iv measured upto 24 hrs; format: ADME, organism-based, Canis lupus familiaris; settings: in vivo
[32] = Volume of distribution at steady state in male Sprague-Dawley rat at 5 mg/kg, po or 1 mg/kg, iv measured upto 24 hrs; format: ADME, organism-based; settings: in vivo
[33] = Cmax in male Beagle dog at 3 mg/kg, po or 1 mg/kg, iv measured upto 24 hrs; format: ADME, organism-based, Canis lupus familiaris; settings: in vivo
[34] = target: T1, Protein arginine N-methyltransferase 5; assay: In vivo inhibition of PRMT5 in female BALB/c nude mouse xenografted with human Lu-99 cell line assessed as inhibition of SDMA level at 200 mg/kg administered once daily via oral gavage by Western blot analysis relative to control; format: functional, organism-based; design: scale not given: the % may be the effect or the level left
[35] = target: T1, Protein arginine N-methyltransferase 5; assay: Inhibition of PRMT5 (unknown origin)
[36] = Antiproliferative activity against MTAP null human HCC15 cells assessed as inhibition of cell viability measured after 10 days by luminescence based cell titer-glo assay; format: functional; settings: HCC15, 240 h

T1 sequence (O14744 whole entry): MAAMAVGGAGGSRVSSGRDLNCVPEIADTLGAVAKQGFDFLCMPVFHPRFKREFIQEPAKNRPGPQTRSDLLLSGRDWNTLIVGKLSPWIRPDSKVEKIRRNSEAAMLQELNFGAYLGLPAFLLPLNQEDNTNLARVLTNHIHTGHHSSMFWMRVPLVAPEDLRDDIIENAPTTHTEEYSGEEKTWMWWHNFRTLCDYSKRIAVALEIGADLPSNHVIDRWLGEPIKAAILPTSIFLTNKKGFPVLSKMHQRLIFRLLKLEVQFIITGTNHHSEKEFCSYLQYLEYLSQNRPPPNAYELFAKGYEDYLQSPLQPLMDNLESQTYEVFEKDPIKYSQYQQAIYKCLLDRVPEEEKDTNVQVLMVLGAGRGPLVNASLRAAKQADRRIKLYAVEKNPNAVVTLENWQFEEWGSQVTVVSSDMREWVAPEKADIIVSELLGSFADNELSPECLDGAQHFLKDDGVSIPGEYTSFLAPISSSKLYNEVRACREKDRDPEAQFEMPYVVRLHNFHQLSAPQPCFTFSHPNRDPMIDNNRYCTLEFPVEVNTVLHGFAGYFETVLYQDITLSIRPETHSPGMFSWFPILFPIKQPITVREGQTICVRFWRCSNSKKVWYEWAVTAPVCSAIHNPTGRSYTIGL

Structure (SMILES): Cc1cc2cc(C(=O)N(Cc3ccc(C(F)(F)F)cn3)C(C)c3ncccn3)ccc2nc1N (centres undefined)
- Ratio IC50 [1]: 31

Structure (SMILES): CN(C(=O)c1ccc2nc(N)c3c(c2c1)COC3)C1CN(c2ccccc2)C1
- IC50 (HCT-116 [2]): 1590 nM

Structure (SMILES): N#Cc1cccc(N2C[C@@H]3C[C@H]2CN3C(=O)c2ccc3nc(N)c4c(c3c2)COC4)c1
- IC50 (HCT-116 [2]): 3680 nM

Structure (SMILES): CN(C(=O)c1ccc2nc(N)c3c(c2c1)COC3)[C@@H]1CCN(c2cccc(C#N)c2)C1
- IC50 (HCT-116 [2]): 317 nM
- IC50 (HCT-116 [3]): 6620 nM

Structure (SMILES): CN(C(=O)c1ccc2nc(N)c3c(c2c1)COC3)[C@H]1CCN(c2ccccc2)C1
- IC50 (HCT-116 [2]): 2000 nM

Structure (SMILES): CN(C(=O)c1cc2c3c(c(N)nc2cc1F)COC3)[C@@H]1CCN(c2ccc(C#N)cc2)C1
- IC50 (HCC95): 2740 nM
- Activity (Lu-99 cell line [4]): 102%
- IC50 (HCT-116 [2]): 15 nM
- AUC [5]: 5610 ng·h/mL
- IC50 [6]: 2960 nM
- IC50 (Lu-99 cell line [7]): 21.9 nM
- IC50 [8]: 118 nM
- Activity (Lu-99 cell line [9]): Dose-dependent-effect
- Activity (Lu-99 cell line [10]): 71%
- Activity [11]: 68%
- Activity [12]: Non-toxic
- bioavailability [13]: 82.5%
- IC50 (DOHH-2): 20.9 nM
- IC50 (MDA-MB-436): 4870 nM
- Cmax [14]: 1720 ng/mL
- inhibition [15]: Active
- AUC [16]: 6900 ng·h/mL
- inhibition [17]: Active
- Activity [18]: Dose-dependent-effect
- bioavailability [19]: 105%
- IC50 [20]: 4.7 nM
- Activity (Lu-99 cell line [21]): 94%
- Activity [22]: 43%
- Activity [23]: Non-toxic
- IC50 (BT-20): > 10000 nM
- bioavailability [24]: 81%
- inhibition [25]: Active
- inhibition [26]: Active
- Activity (Lu-99 cell line [27]): 76%
- Cmax [28]: 1020 ng/mL
- Activity [29]: 49%
- AUC [30]: 6140 ng·h/mL
- IC50 (HCT-116 [3]): 1900 nM
- Vdss [31]: 1.87 L/kg
- Vdss [32]: 1.52 L/kg
- Cmax [33]: 804 ng/mL
- Activity [34]: 85%
- IC50 [35]: 68 nM
- IC50 [36]: 6.6 nM

Structure (SMILES): CN(C(=O)c1ccc2nc(N)c3c(c2c1)COC3)[C@@H]1CCN(c2ccc(C#N)cc2)C1
- IC50 (HCT-116 [2]): 95 nM
- Ratio IC50 [1]: 82
- IC50 (HCT-116 [3]): 7820 nM

Structure (SMILES): Cc1cc(NC(=O)C(=O)N2C[C@@H](C)CC[C@@H]2c2ccc3scnc3c2)cnc1N
- Ratio IC50 [1]: 13

Structure (SMILES): Cn1ncc(-c2ccc3c(=O)[nH]nc(CN)c3c2)c1-c1c(F)c(Cl)cc(OC2CC2)c1C#N
- Ratio IC50 [1]: 73

Structure (SMILES): N#Cc1ccc(N2C[C@@H]3C[C@H]2CN3C(=O)c2ccc3nc(N)c4c(c3c2)COC4)cc1
- IC50 (HCT-116 [2]): 3170 nM

Structure (SMILES): CN(C(=O)c1ccc2nc(N)c3c(c2c1)COC3)[C@H]1CCCN(c2ccccc2)C1
- IC50 (HCT-116 [2]): 6060 nM

Structure (SMILES): CN(C(=O)c1ccc2nc(N)c3c(c2c1)COC3)[C@@H]1CCN(c2ccc(-c3cnn(C)c3)cc2)C1
- IC50 (HCT-116 [2]): 211 nM
- IC50 (HCT-116 [3]): > 10000 nM
